Tests used:
[1] = target: T1, Δ382C (DDase-Δ382C) (Gluconobacter oxydans, UniProt A0A0M5MSC0, E858A); assay: glycosynthase reaction, isomaltotetraose formation by HPAEC-PAD; assay type: biochemical; conditions: 12.5 mM donor, 50 mM isomaltotriose acceptor, 130 mM sodium acetate pH 4.2, 35 °C
T1 construct: gene HKD20_12845; C-terminal truncation Met1-Ser902 (domains N1, N2, HLH, A); N-terminal His6 tag (MNHKVHHHHHHIEGRHMEL) kept; E. coli BL21-CodonPlus(DE3)-RIL; 921 residues with tag; dimer 195,604 Da
T1 sequence (A0A0M5MSC0 entry or part of it E858A): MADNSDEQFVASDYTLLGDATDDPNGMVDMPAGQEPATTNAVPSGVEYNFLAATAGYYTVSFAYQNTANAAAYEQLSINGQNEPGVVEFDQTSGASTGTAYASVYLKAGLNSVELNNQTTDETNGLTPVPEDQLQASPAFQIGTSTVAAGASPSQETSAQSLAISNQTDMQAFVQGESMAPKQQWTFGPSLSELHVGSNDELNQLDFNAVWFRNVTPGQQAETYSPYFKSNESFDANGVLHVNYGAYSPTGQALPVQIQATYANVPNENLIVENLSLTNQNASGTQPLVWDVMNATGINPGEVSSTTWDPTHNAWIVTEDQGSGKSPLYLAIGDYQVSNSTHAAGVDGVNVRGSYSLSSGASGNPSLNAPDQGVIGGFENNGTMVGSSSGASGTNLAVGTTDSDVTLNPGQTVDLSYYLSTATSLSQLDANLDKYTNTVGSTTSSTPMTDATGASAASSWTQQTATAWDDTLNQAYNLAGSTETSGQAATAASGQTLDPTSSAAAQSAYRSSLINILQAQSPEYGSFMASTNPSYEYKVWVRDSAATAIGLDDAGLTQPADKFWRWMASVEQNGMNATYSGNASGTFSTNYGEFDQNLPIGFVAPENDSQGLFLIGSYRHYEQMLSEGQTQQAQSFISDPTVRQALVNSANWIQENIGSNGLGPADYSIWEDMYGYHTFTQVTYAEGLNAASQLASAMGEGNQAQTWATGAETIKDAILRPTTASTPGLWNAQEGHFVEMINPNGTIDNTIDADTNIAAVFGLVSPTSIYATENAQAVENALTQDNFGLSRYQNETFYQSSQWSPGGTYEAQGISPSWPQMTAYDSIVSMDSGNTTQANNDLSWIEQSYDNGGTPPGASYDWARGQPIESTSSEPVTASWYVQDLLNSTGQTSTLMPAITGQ

[2] = target: T2, Δ382C (DDase-Δ382C) (Gluconobacter oxydans, UniProt A0A0M5MSC0, E858S); assay: as above; assay type: biochemical; conditions: 12.5 mM donor, 50 mM isomaltotriose acceptor, 130 mM sodium acetate pH 4.2, 35 °C
T2 construct: gene HKD20_12845; C-terminal truncation Met1-Ser902 (domains N1, N2, HLH, A); N-terminal His6 tag (MNHKVHHHHHHIEGRHMEL) kept; E. coli BL21-CodonPlus(DE3)-RIL; 921 residues with tag; dimer 195,604 Da
T2 sequence (A0A0M5MSC0 entry or part of it E858S): as the sequence (A0A0M5MSC0 entry or part of it E858A) above, with A858S counted along it

OC[C@H]1O[C@@H](F)[C@H](O)[C@@H](O)[C@@H]1O [β-GF, β-D-glucosyl fluoride]
glycosynthase reaction, isomaltotetraose formation by HPAEC-PAD [1]: isomaltotetraose (IG4) was produced from β-D-glucosyl fluoride (β-GF) and IG3 by E858A and E858S | glycosynthase reaction, isomaltotetraose formation by HPAEC-PAD [2]: isomaltotetraose (IG4) was produced from β-D-glucosyl fluoride (β-GF) and IG3 by E858A and E858S

— PMC12446779, “Structural basis of transglucosylation in dextran dextrinase, a homolog of anomer-inverting GH15 glucoside hydrolases” (The Journal of Biological Chemistry, 2025)
